Measured values: patent publication US20110027300A1, “Identification of a novel cysteine-rich cell penetrating peptide” (Max-Planck-Gesellschaft zur Forderung der Wissenschaften …, priority 2008, published 2011)
Read-outs that look alike come from different tables or passages of the source. Square brackets hold non-standard residues; d marks the D form. Ends that are not written are not given here. K(FITC) = lysine labelled with FITC

Tests used:
[1] = system: Primary murine bone marrow cells; experiment: Internalization in additional cell lines; format: cell-based, mouse
Procedure: (§1) C6 rat glioma N18 mouse neuroblastoma (differentiated, undifferentiated) CCL-11 mouse fibrosarcoma Shin3 human ovarian carcinoma PANC1 human pancreatic carcinoma Primary murine bone marrow cells
Bone marrow cells were extracted from hind legs of sacrificed mice and were kept in supplemented IMDM medium.
(§2) Internalization experiments on cells were performed in 96 well microplates by inoculation of NIH 3T3 fibroblasts (1×10^4 cells/well). After 24 h, cells were incubated with 2.5 μM of different peptide solutions in DMEM for additional 18 h at 37° C. with 10% CO2. Before washing, cells were incubated with Bisbenzimid 33342 (Hoechst 33342), a nuclear stain, in order to estimate the cell number. Cells were washed with Hanks' buffered saline (Biochrom AG, Germany) and extracellular fluorescence was quenched by incubating with cold trypan blue 0.05% (w/v) in phosphate-buffered saline (Biochrom AG, Germany) for 3 min followed by repeated washes with Hanks' buffered saline. Cell-related FITC fluorescence (Ex 485 nm/Em 530 nm) and cell number (Ex 346 nm/Em 460 nm) was evaluated in a multiplate reader. Experiments were run at least three times for each peptide with six replicates. Statistical analysis was performed by Student's t-test or ANOVA with Dunnett's post test. P values <0.05 were considered significant. The results are depicted in FIGS. 1 to 3. […]

NIH 3T3 fibroblasts [2] = experiment: Fluorescence microscopy of cellular localization and distribution of the peptide; format: cell-based, mouse; conditions: for intracellular fluorescence distribution (vesicular / diffused cytosolic): K(FITC)-labelled peptide, 2.5 μM, live cells without fixation
Description: (§3) The same cells were subjected to microscopic studies without fixation using a Zeiss Axiovert 200 M (Germany) microscope with a LD Plan NeoFluor 40× objective. The imaging conditions were kept constant for the observation of different samples. Cellular localization and distribution of the peptide was observed by irradiating with blue light (470/40 nm) and observing at 525/50 nm. The bright punctate and encapsulated appearing FITC fluorescence was categorized as vesicular uptake while diffused fluorescence appeared to be distributed in the entire cell with similar intensity. […] Also phase contrast images with DIC of the same area were made to observe if the cells maintain their normal morphology in the presence of peptides.

[3] = system: differentiated N18 neuroblastoma cells; experiment: Internalization in additional cell lines; format: cell-based, mouse; conditions: differentiated N18, serum reduced from 10% to 1.25%
Procedure: as §1
(§4) Cells were cultivated using their respective optimized growth medium and passaged as described. Differentiation was induced in N18 cells by stepwise reduction of serum in the growth medium from 10% to 1.25%.
as §2, with “test.” for “test. P values <0.05 were considered significant. The results are depicted in FIGS. 1 to 3.”

[4] = Peptide NMR in water, solution state; format: physicochemical
Procedure: Sample solutions were prepared at pH 4-4.5 and pH 6.5-7 in water. At pH 4.5 standard set of 2D homonuclear experiments (2D-ipCOSY, 2D-TOCSY, two 2D-NOESY spectra at different mixing times (100 and 200 ms)) and heteronuclear experiments (^13C-HSQC and ^15N-HSQC) were performed. The sample yielded well resolved spectra consistent with a monomeric peptide. Using these spectra it was possible to complete a full assignment of all non-exchangeable proton resonances, plus the carbon and nitrogen resonances.
Whereas at pH 6.5, broadening of lines, probably due to the formation of high molecular weight aggregates, makes it difficult to assign individual resonances. Thus, the presence or absence of disulfide bridges in this sample could not be deduced.
NMR experiments were carried out at 600 MHz on a Bruker Avance III spectrometer.

[5] = system: N18 mouse neuroblastoma (undifferentiated); experiment: Internalization in additional cell lines; format: cell-based
Procedure: as §1, §4
(§5) Internalization experiments on cells were performed in 96 well microplates by inoculation of NIH 3T3 fibroblasts (1×10^4 cells/well). After 24 h, cells were incubated with 2.5 μM of different peptide solutions in DMEM for additional 18 h at 37° C. with 10% CO2. Before washing, cells were incubated with Bisbenzimid 33342 (Hoechst 33342), a nuclear stain, in order to estimate the cell number. Cells were washed with Hanks' buffered saline (Biochrom AG, Germany) and extracellular fluorescence was quenched by incubating with cold trypan blue 0.05% (w/v) in phosphate-buffered saline (Biochrom AG, Germany) for 3 min followed by repeated washes with Hanks' buffered saline. Cell-related FITC fluorescence (Ex 485 nm/Em 530 nm) and cell number (Ex 346 nm/Em 460 nm) was evaluated in a multiplate reader. Experiments were run at least three times for each peptide with six replicates. Statistical analysis was performed by Student's t-test or ANOVA with Dunnett's post test. P values <0.05 were considered significant. The results are depicted in FIGS. 1 to 3.
as §3

[6] = system: PANC1 human pancreatic carcinoma; experiment: Internalization in additional cell lines; format: cell-based
Procedure: as §1, §4, §5, §3

C6 rat glioma = experiment: Internalization in additional cell lines; format: cell-based
Procedure: as §1, §4, §5, §3

[7] = system: CCL-11 mouse fibrosarcoma; experiment: Internalization in additional cell lines; format: cell-based
Procedure: as §1, §4, §5, §3

[8] = system: Shin3 human ovarian carcinoma; experiment: Internalization in additional cell lines; format: cell-based
Procedure: as §1, §4, §5, §3

NIH 3T3 fibroblasts [9] = experiment: Uptake assay: cell-related FITC fluorescence corrected for cell number; format: cell-based, mouse; conditions: for cellular uptake / internalization efficiency: K(FITC)-labelled peptide
Procedure: NIH 3T3 mouse fibroblast cells were cultured as a monolayer at 37° C. with 10% CO2 in Dulbecco's Modified Eagle's Medium (DMEM) supplemented with 10% fetal bovine serum, 4 mM L-glutamine, 100 μg/mL streptomycin and 100 U/mL penicillin (all purchased from Biochrom AG, Germany). Cells were passaged by trypsinization with trypsin/EDTA 0.05/0.02% (w/v) in phosphate-buffered saline (PBS; Biochrom AG, Germany) every second to third day.
as §5

[10] = system: different cell types and mouse blastocysts; conditions: cited from earlier work
cells = conditions: cited from earlier work

Substance: K (FITC)-CRWRWKCCKK ({K(FITC)}-CRWRWKCCKK; cysteine pairing not given here) [peptide 23]
- uptake behaviour and fluorescence distribution [1]: comparable uptake behaviour with vesicular as well as diffused cytosolic fluorescence distribution
- intracellular fluorescence distribution (vesicular / diffused cytosolic) (NIH 3T3 fibroblasts [2]): endosomal as well as cytoplasmic fluorescence distribution
- cytosolic distribution at low concentration (NIH 3T3 fibroblasts [2]; concentration as low as 2.5 μM): retaining the cytosolic distribution
- uptake [3]: strongly reduced
- solution state of the peptide ([4]; pH 4.5 in water): unstructured and in a reduced state
- solution state of the peptide ([4]; pH 6.5 in water): aggregation
- uptake behaviour and fluorescence distribution [5]: comparable uptake behaviour with vesicular as well as diffused cytosolic fluorescence distribution
- uptake behaviour and fluorescence distribution [6]: comparable uptake behaviour with vesicular as well as diffused cytosolic fluorescence distribution
- uptake behaviour and fluorescence distribution (C6 rat glioma): comparable uptake behaviour with vesicular as well as diffused cytosolic fluorescence distribution
- uptake behaviour and fluorescence distribution [7]: comparable uptake behaviour with vesicular as well as diffused cytosolic fluorescence distribution
- uptake behaviour and fluorescence distribution [8]: comparable uptake behaviour with vesicular as well as diffused cytosolic fluorescence distribution
- delivery efficiency compared with penetratin (NIH 3T3 fibroblasts [9]; 2.5 μM): better taken up by cells
- cellular uptake / internalization efficiency (NIH 3T3 fibroblasts [9]; 2.5 μM, 18 h, 37° C.): competently taken up by cells
- uptake and cytosolic diffused fluorescence on addition of Dithiothreitol (DTT) (NIH 3T3 fibroblasts [9]; excess DTT in the incubation medium): reduced the uptake as well as the cytosolic diffused fluorescence
- concentration at which efficient cellular uptake and cytosolic location along with vesicular distribution is shown (NIH 3T3 fibroblasts [9]; subtoxic concentrations): < 2.5 µM

Substance: Crotamine
- intracellular localization ([10]; applied before cell division, after the telophase): mainly localized in the cytoplasm
- intracellular localization [10]: localize preferably in the nucleus
- non-toxic concentration [10]: up to 1 μM
- cell penetration ([10]; in vitro): penetrating into different cell types and mouse blastocysts

Substance: Ac-tccgtgaacggc-K(FITC)-CRWRWKCCKK-CONH2 (chain 1 Ac-[code t][code c][code c][code g][code t][code g][code a][code a][code c][code g][code g][code c]; chain 2 {K(FITC)}-CRWRWKCCKK-NH2; not fully specified (C-terminus); cysteine pairing not given here; also: chain 1 is a PNA strand joined via Lys(FITC) to peptide chain 2) [PNA-CyLoP-1 fusion]
- uptake compared to peptide 23 (CyLoP-1) (NIH 3T3 fibroblasts [9]; 2.5 μM, 18 h, 37° C.): lowest intracellular fluorescence

Substance: K (FITC)-KMDCRWRWKCCKK ({K(FITC)}-KMDCRWRWKCCKK; cysteine pairing not given here) [peptide 1, reference compound]
- intracellular fluorescence distribution (vesicular / diffused cytosolic) (NIH 3T3 fibroblasts [2]): cytoplasmic diffusion
- internalization into cells (cells): able to internalize into cells
- cellular uptake / internalization efficiency (NIH 3T3 fibroblasts [9]; 2.5 μM, 18 h, 37° C.): efficient CPP
